Laboratory results published in patent publication US20250338846A1, “COMPOSITIONS HAVING PESTICIDAL UTILITY AND PROCESSES RELATED THERETO” (CORTEVA AGRISCIENCE, LLC, priority 2022, published 2025).

Legend:
Assay type in all cases: in vivo
[1] = test system: Diamondback Moth (Plutella xylostella, PLUTMA); assay: Bioassay 6: Diamondback Moth, artificial lepidopteran diet, live larvae after 5 days; conditions: DBM; AI alone 0.04 % w/v
Experimental: where X=No. of live nymphs on solvent check and Y=No. of live nymphs on treated bean segments. In Table B5 the “Expected % Control” was calculated using the method described in Colby S. R., Weeds, 1967, 15, 20-22. Bioassay 6: Beet Armyworm (Spodoptera exigua, LAPHEG) (BAW), and Diamondback Moth (Plutella xylostella, PLUTMA) (DBM).
(§1) Stock solutions were prepared with Formula One as well as for each of the active ingredients individually. Test solutions were prepared from the stock solutions. Test solutions were prepared containing Formula One, the individual active ingredients, and mixtures of Formula One with each of the active ingredients. The test solution for Formula One was prepared by adding 500 μL of the stock solution to a 25 mL glass vial, then adding 500 μL of a 9:1 mixture of acetone: water. The individual active ingredients were prepared by adding 500 μL of stock solution to a 25 mL glass vial, then adding 500 μL of a 9:1 mixture of acetone: water. The test solutions containing mixtures of Formula One and the individual active ingredients were prepared by adding 500 μL of the active ingredient stock solution to a 25 mL glass vial, followed by 500 μL of the Formula One stock solution, creating a test solution containing 4000 ppm Formula One and 0.4% (w/v) of the active ingredient. Each test solution was serially diluted to create desired doses of test solutions (0.4% (w/v), 0.04% (w/v), 0.004% (w/v), 0.0004% (w/v), 0.00004% (w/v), and 0.000004% (w/v)). In test solutions containing mixtures of Formula One and the active ingredients, the active ingredients were diluted as described above, but the Concentration of Formula One was held constant (0.4% (w/v)). The highest dose test solution (0.4% (w/v)) was discarded, leaving 5 test solution concentrations used in the test.
The test solutions were tested against BAW and DBM using the following procedure: An artificial lepidopteran diet (Multispecies Lepidopteran Diet, Southland Products) was distributed in 128-cell bioassay trays (Frontier Agricultural Sciences™). 50 μL of test solution was pipetted into a cell in the bioassay tray. (The test solution doses of 0.04% (w/v), 0.004% (w/v), 0.0004% (w/v), 0.00004% (w/v), and 0.000004% (w/v) translated to concentrations of 5, 0.5, 0.05, 0.005, and 0.0005 ug/cm^2 on the diet, respectively.) A reference treatment (solvent check) was treated with the diluent only. […] After 5 days, the number of live larvae were recorded from each cell and percent control was measured using Abbott's correction formula (W. S. Abbott, J. Econ. Entomol. 18 (1925), pp. 265-267) as follows:
where X=No. of live larvae on solvent check and Y=No. of live larvae on treated diet. In Table B6 the “Expected % Control” was calculated using the method described in Colby S. R., Weeds, 1967, 15, 20-22. […]

[2] = test system: Sweet Potato Whitefly (Bemisia tabaci, BEMITA); assay: Bioassay 2: Sweet Potato Whitefly, spray on cotton seedlings at crawler emergence, nymphs counted 7-9 days after treatment
Experimental: (§2) Stock solutions were prepared with Formula One as well as for each of the active ingredients individually. Test solutions were prepared from the stock solutions. Test solutions were prepared containing Formula One, the individual active ingredients, and mixtures of Formula One with each of the active ingredients. The test solutions for Formula One and the individual active ingredients were prepared by adding 500 μL of stock solution to a 25 mL glass vial, then adding 500 μL of acetone, followed by the addition of 9 mL water with 0.025% Tween®) 20 to create a 0.001% (w/v) solution. The test solutions containing mixtures of Formula One and the individual active ingredients were prepared by adding 500 μL of the active ingredient stock solution to a 25 mL glass vial, followed by 500 μL of the Formula One stock solution, then by the addition of 9 mL water with 0.025% Tween®) 20 to create a test solution containing 0.001% (w/v) Formula One and 0.001% (w/v) of the active ingredient. Each test solution was serially diluted to create desired doses of test solutions (0.001% (w/v), 0.0001% (w/v), 0.00001% (w/v), 0.000001% (w/v), 0.0000001% (w/v), and 0.00000001% (w/v)).
(§3) The test solutions were tested against SPW using the following procedure: Cotton seedlings grown in 3-inch pots, pruned so that only one true leaf remained, were used as test substrate. Adult B. tabaci were allowed to colonize the cotton plants and lay eggs for 24 hours after which all adults were removed from the plants using compressed air. Plants were monitored for egg development and, when crawler emergence was underway (>25% emergence based on visual examination using a microscope), the plants were sprayed using the test solutions and methods described above for green peach aphids (GPA). Treated plants were held in a holding room at approximately 25° C. and ambient relative humidity (RH) prior to grading. Evaluation was conducted by counting the number of developed 2-3 instar nymphs per plant under a microscope 7-9 days after treatment. Percent control was measured using Abbott's correction formula (W. S. Abbott, J. Econ. Entomol. 18 (1925), pp. 265-267) as follows:
where X=No. of live nymphs on solvent check plants and Y=No. of live nymphs on treated plants. In Table B2 the “Expected % Control” was calculated using the method described in Colby S. R., Weeds, 1967, 15, 20-22. Bioassay 3: Western Flower Thrips (Frankliniella occidentalis, FRANOC) (“WFT”).

[3] = test system: Sweet Potato Whitefly (Bemisia tabaci, BEMITA); assay: Bioassay 8: Sweet Potato Whitefly, spray on cotton seedlings at crawler emergence, nymphs counted 7-9 days after treatment; conditions: AI alone 0.1 (10^-5) Wt %
Experimental: (§4) where X=No. of live aphids on solvent check plants and Y=No. of live aphids on treated plants. In Table B1 the “Expected % Control” was calculated using the method described in Colby S. R., Weeds, 1967, 15, 20-22. Bioassay 8: Sweet Potato Whitefly (Bemisia tabaci, BEMITA) (“SPW”).
as §2, with “0.0000001% (w/v), […] and 0.00000001%” for “0.0000001% (w/v), and 0.00000001%”
as §3
(§5) where X=No. of live nymphs on solvent check plants and Y=No. of live nymphs on treated plants. In Table B2 the “Expected % Control” was calculated using the method described in Colby S. R., Weeds, 1967, 15, 20-22. Bioassay 9: Diamondback Moth (Plutella xylostella, PLUTMA) (DBM).

[4] = test system: Diamondback Moth (Plutella xylostella, PLUTMA); assay: Bioassay 9: Diamondback Moth, leaves of track-sprayed cabbage plants, mortality and feeding damage scored
Experimental: as §5, §1
Cabbage seedlings, grown in 3-inch pots with 2-3 small (3-5 centimeter (cm)) true leaves, were used as test substrate. Cabbage plants were sprayed with desired concentrations of Formula One and active ingredients or their mixtures using a track Sprayer. Reference plants (solvent check) were sprayed with diluent only (0.025% Tween® 20 and 10% acetone:methanol (1:1) in water). The sprayed cabbage plants were allowed to dry for 1 hour, after which leaves from each treatment were placed in a cell of a plastic tray. One leaf per cell and 8 replicates for each cell. The tested doses ranged between 0.000001% (w/v) to 0.0002% (w/v). One 2nd instar DBM larvae were placed in each cell of the tray and allowed to feed on the cabbage foliage for […] after which the mortality and feeding damage were scored. Test trays were held at approximately 26° C. and ambient relative humidity (RH) prior to grading. The number of live larvae were recorded from each cell and percent control was measured using Abbott's correction formula (W. S. Abbott, J. Econ. Entomol. 18 (1925), pp. 265-267) as follows:
where X=No. of live larvae on solvent check and Y=No. of live larvae on treated diet. In Table B6 the “Expected % Control” was calculated using the method described in Colby S. R., Weeds, 1967, 15, 20-22.

[5] = test system: Cotton Aphid (Aphis gossypii, APHIGO); assay: Bioassay 7: Cotton Aphid, foliar spray on infested cotton seedlings, live aphids counted three days after treatment
Experimental: where X=No. of live larvae on solvent check and Y=No. of live larvae on treated diet. In Table B6 the “Expected % Control” was calculated using the method described in Colby S. R., Weeds, 1967, 15, 20-22. Bioassay 7: Cotton Aphid (Aphis gossypii, APHIGO) (“CA”).
Stock solutions of Formula One and one or more of the active ingredients were prepared at concentrations of 1 mg/mL using a 1:1 mixture of acetone: methanol as a diluent. The stock solutions were prepared with Formula One as well as for each of the active ingredients individually. Test solutions were prepared from the stock solutions. Test solutions were prepared containing Formula One, the individual active ingredients, and mixtures of Formula One with each of the active ingredients. The test solutions for Formula One and the individual active ingredients were prepared by adding 1.5 mL of stock solution to a 30 mL glass vial, then adding 1.5 mL of 1:1 acetone: methanol solvent, followed by the addition of 27 mL water with 0.025% Tween® 20 to create a […]. Each test solution was serially diluted to create desired doses of test solutions ranging from 0.000001 to 0.0025% (w/v). The test solutions were tested against CA using the following procedure: cotton seedlings were grown in 3-inch pots with one true leaf (2-5 cm in diameter) were used as test substrate. The seedlings were infested with 20-50 CA (wingless adult and nymph stages) one day prior to chemical application. Four pots with individual seedlings were used for each treatment. A hand-held aspirator-type sprayer was used for spraying a solution to both sides of […] leaves until runoff. Reference plants (solvent check) were sprayed with the diluent only (0.025% Tween® 20 and 10% acetone:methanol (1:1) in water). Treated plants were held in a holding room for three days at approximately 25° C. and ambient relative humidity (RH about 20% to about 45%) prior to grading. Evaluation was conducted by counting the number of live aphids per plant under a microscope three days after treatment. Percent control was measured using Abbott's correction formula (W. S. Abbott, J. Econ. Entomol. 18 (1925), pp. 265-267) as follows:
as §4

For C[C@]1(COC(=O)C2CC2)[C@@H]2C[C@H](O)[C@@]3(C)Oc4cc(-c5cccnc5)oc(=O)c4[C@H](O)[C@@H]3[C@@]2(C)CC[C@@H]1OC(=O)C1CC1 [Afidopyropen], the “Average % Control AI” value [1] was 25%, the “Average % Control AI” value ([2]; AI alone 0.1 (10-5) % w/v) was 0% and the “Average % Control AI” value ([2]; AI alone 1 (10-5) % w/v) was 0%.
For CC1(C)[C@H](C(=O)O[C@H](C#N)c2cccc(Oc3ccccc3)c2)[C@@H]1C=C(Br)Br [Deltamethrin], the “Average % Control A1” value [3] was 35.94%, the “Average % Control AI” value ([4]; AI alone 5 (10^-5) Wt %) was 30.43% and the “Average % Control AI” value ([4]; AI alone 10 (10^-5) Wt %) was 15.22%. The “Average % Control AI” value ([4]; AI alone 20 (10^-5) Wt %) was 30.43%, the “Average % Control A1” value ([5]; AI alone 0.78 (10^-5) Wt %) was 26.73% and the “Average % Control A1” value ([5]; AI alone 2.5 (10^-5) Wt %) was 34.23%. For the same compound, the “Average % Control A1” value ([5]; AI alone 10 (10^-5) Wt %) was 34.23%.
Cc1cc(C)c(C2=C(OC(=O)CC(C)(C)C)C3(CCCC3)OC2=O)c(C)c1 [Spiromesifen] was tested, and the “Average % Control AI” value [1] was 0% and the “Average % Control AI” value ([2]; AI alone 0.1 (10-5) % w/v) was 0%.
For Tetraniliprole, the “Average % Control A1” value [3] was 40.00%, the “Average % Control AI” value ([4]; AI alone 0.1 (10^-5) Wt %) was 16.67% and the “Average % Control AI” value ([4]; AI alone 1 (10^-5) Wt %) was 50.00%. For the same compound, the “Average % Control AI” value ([4]; AI alone 5 (10^-5) Wt %) was 41.67%, the “Average % Control A1” value ([5]; AI alone 0.1 (10^-5) Wt %) was 44.54% and the “Average % Control A1” value ([5]; AI alone 0.8 (10^-5) Wt %) was 7.23%.
